Test results: US20130267532A1, “CYCLIC AMIDE COMPOUNDS AND THEIR USE IN THE TREATMENT OF DISEASE” (priority 2010, published 2013)

Tests used:
full-length human TLR8 = target: T1, full-length human TLR8 (Homo sapiens, UniProt Q9NR97); test: Human TLR8 assay (TLR8/NF-κB/SEAPorter HEK 293 cell line); format: cell-based; conditions: TLR8 activation, SEAP induction, HEK 293 reporter cells, overnight incubation at 37° C., 0.1% DMSO
T1 construct: a stably co-transfected cell line which expresses full-length human TLR8; host or cells: TLR8/NF-κB/SEAPorter HEK 293 Cell Line
T1 sequence (Q9NR97 27-1041): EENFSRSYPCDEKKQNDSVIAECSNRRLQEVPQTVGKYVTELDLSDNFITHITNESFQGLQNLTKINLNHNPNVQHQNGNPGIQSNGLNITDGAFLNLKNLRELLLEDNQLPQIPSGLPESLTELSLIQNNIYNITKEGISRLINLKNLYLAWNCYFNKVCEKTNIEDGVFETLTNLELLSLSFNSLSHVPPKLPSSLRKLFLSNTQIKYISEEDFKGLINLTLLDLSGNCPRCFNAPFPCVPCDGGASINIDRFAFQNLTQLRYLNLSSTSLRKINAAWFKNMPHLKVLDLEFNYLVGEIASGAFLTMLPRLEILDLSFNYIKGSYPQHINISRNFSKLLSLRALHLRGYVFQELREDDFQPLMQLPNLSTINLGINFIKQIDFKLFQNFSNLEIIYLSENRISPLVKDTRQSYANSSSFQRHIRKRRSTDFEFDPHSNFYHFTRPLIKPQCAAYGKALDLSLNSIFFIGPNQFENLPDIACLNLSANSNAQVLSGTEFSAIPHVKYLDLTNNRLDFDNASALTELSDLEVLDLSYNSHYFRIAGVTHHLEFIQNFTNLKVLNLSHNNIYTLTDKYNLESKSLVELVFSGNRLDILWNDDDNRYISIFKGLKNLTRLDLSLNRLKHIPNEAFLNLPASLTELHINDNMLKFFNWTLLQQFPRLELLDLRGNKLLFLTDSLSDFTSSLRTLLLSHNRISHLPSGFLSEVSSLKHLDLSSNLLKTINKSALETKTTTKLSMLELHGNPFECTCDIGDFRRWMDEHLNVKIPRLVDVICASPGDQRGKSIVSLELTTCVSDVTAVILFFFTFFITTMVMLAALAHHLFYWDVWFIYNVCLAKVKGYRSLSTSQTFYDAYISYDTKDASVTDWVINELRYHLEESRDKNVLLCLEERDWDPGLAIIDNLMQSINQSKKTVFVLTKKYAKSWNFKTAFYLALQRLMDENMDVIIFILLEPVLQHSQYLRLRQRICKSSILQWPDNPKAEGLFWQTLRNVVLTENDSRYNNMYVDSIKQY
Text: TLR8/NF-κB/SEAPorter™ HEK 293 Cell Line (Imgenex Corporation) is a stably co-transfected cell line which expresses full-length human TLR8 and the secreted alkaline phosphatase (SEAP) reporter gene under the transcriptional control of an NF-κB response element. TLR8 expression in this cell line has been tested by flow cytometry. Transfectants with stable expression were selected using the antibiotic blasticidin and geneticin. TLR signaling leads to the translocation of NF-κB and activation of the promoter results in expression of the SEAP gene. TLR8-specific activation was assessed by determining the level of SEAP produced following overnight incubation of the cells at 37° C. with the standard compound in the presence of 0.1% (v/v) dimethylsulfoxide (DMSO). Concentration dependent induction of SEAP production by compounds was expressed as the concentration of compound which produced half of the maximal level of SEAP induction for that compound (EC50).

PAMPA analysis = format: in vitro ADME; conditions: pH 7.4, GIT Lipid-0, incubation for 4 h, read-out: Pe pH 7.4
Procedure: Donor: System Solution Concentrate (pION inc.) (25 mL) and DMSO (50 mL) (f.c. 5%) was diluted to 1 L with milliQ water, adjusted to pH5.0 or 7.4 with NaOH. Compound solution (5 μL, 10 mM solution in DMSO) was added to 1 mL of system solution prepared as above, and filtered.
Acceptor: Acceptor Sink Buffer(pION inc.)
Compound solution (200 μL) was added to Donor plate. GIT Lipid-0 (pION inc.) […] was added to Acceptor plate. Acceptor Sink Buffer (200 μL) was added to Acceptor plate. Donor and Acceptor plates were superposed. After incubation for 4 h under humidified conditions, the concentration of test compound in both solutions of Acceptor and Donor plates were measured by UV plate reader (190-500 nm). Permeation coefficient Pe(10^−6 cm/sec) was calculated by the equation shown below.
[formula] ra=(VD/VA)Pe^(A→D)/Pe^(D→A)=rVPe^(A→D)/Pe^(D→A)
rV=(VD/VA) • VD=volume of donor well • VA=volume of acceptor well • t=permeation time • τ^SS=steady state time • R=retention • CD and CA=concentration in donor and acceptor well The results are shown in Table 4.

hERG potassium channel = target: T2, hERG potassium channel (Homo sapiens, UniProt Q12809); test: hERG analysis Method 1 (QPatch HT automated patch clamp, CHO cells); format: cell-based; conditions: hERG-expressing CHO cells, tail current, room temperature (22±2° C.), 4 cumulative concentrations
T2 construct: expressed in transfected cells; host or cells: Chinese hamster ovary K1 (CHO) cells stably expressing hERG
T2 sequence (Q12809 whole entry): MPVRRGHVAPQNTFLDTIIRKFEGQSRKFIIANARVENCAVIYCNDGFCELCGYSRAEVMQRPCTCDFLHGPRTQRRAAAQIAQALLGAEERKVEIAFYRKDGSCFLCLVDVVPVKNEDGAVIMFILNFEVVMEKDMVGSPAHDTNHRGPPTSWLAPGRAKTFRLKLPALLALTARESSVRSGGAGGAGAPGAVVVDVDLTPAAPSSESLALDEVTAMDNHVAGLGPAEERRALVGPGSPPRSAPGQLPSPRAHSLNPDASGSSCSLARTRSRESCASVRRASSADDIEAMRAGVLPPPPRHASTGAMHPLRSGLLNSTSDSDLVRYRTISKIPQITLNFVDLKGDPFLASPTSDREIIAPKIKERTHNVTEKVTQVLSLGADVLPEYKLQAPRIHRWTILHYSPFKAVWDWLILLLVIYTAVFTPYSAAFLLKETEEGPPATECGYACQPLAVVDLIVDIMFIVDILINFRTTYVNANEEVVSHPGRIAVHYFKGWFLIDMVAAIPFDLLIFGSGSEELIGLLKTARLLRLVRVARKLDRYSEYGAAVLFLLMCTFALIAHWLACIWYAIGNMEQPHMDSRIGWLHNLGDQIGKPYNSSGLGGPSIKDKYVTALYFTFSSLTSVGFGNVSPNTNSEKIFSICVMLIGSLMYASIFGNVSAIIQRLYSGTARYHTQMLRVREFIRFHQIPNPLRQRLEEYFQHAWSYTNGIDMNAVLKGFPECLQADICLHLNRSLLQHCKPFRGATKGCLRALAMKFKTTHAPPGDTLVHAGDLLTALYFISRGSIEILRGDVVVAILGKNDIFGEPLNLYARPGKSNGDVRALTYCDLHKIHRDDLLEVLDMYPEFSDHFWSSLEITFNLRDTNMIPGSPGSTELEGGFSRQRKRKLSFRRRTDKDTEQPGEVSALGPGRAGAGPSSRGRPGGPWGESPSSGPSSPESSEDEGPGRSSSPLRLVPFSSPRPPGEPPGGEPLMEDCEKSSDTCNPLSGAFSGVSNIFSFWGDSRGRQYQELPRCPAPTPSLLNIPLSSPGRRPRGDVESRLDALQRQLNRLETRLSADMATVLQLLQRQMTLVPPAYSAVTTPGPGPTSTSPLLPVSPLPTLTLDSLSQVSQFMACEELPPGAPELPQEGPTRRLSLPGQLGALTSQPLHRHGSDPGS
Procedure: hERG (Human Ether-a-go-go Related Gene) Analysis—Method 1
The hERG potassium current is measured in a hERG-stably-expressing Chinese hamster ovary K1 (CHO) cells. The experiments were performed using an automated planar patch-clamp system QPatch HT (Sophion Bioscience A/S). The application of pressure for forming gigaseals and whole-cell patch clamp configuration were established using the QPatch assay software. Patch-clamp experiments were performed in voltage-clamp mode and whole-cell currents were recorded from individual cells. The following stimulation protocol was applied to investigate the effects of compounds on hERG potassium channel.: The membrane potential was held at −80 mV and repetitively (every 15 s) depolarized to +20 mV for 5 s after the pulse to −50 mV for 20 ms served to define the baseline, followed by repolarizing step to −50 mV for 5 s to evaluate of the tail current amplitude. Experiments were conducted at room temperature (22±2° C.).
Effects of compounds were determined from cumulative applications of increasing 4 concentrations and calculated as percent of blocked current. The data points were fitted with Hill equation to calculate half-maximal inhibition concentrations.
The test solution includes:
Extracellular solution (mM): 2 mM of CaCl2, 1 mM of MgCl2, 10 mM of HEPES, 4 mM of KCl, 145 mM of NaCl, and 10 mM of glucose; and
Intracellular solution (mM): 5.4 mM of CaCl2, 1.8 mM of MgCl2, 10 mM of HEPES, 31 mM of KOH, 10 mM of EGTA, 120 mM of KCl, and 4 mM of ATP.

| EC50 (full-length human TLR8) | Papp at 4 h, 50 µM (PAMPA analysis) | Compound | IC50 (hERG potassium channel) |
| --- | --- | --- | --- |
| > 10 µM | < 0.1 ×10⁻⁶ cm/s | CCC[C@@H](CCO)Nc1nc(N)nc(C)c1Cc1ccc(N2CCNCC2=O)cc1OC [Example 5, (S)-1-(4-{[2-Amino-4-(1-hydroxyhexan-3-ylamino)-6-methylpyrimidin-5-yl]methyl}-3-methoxyphenyl)piperazin-2-one] | > 10 µM |
| > 10 µM | 35.6 ×10⁻⁶ cm/s | CCCCNc1nc(N)nc(C)c1Cc1ccc(N2CCN(C)CC2=O)cc1OC [Example 1, 1-(4-{[2-Amino-4-(butylamino)-6-methylpyrimidin-5-yl]methyl}-3-methoxyphenyl)-4-methylpiperazin-2-one] | 2.9 µM |
| > 10 µM | 44.2 ×10⁻⁶ cm/s | CCCCCNc1nc(N)nc(C)c1Cc1ccc(N2CCN(C)CC2=O)cc1OC [Example 2, 1-(4-{[2-Amino-4-methyl-6-(pentylamino)pyrimidin-5-yl]methyl}-3-methoxyphenyl)-4-methylpiperazin-2-one] | 0.8 µM |
| 5.01 µM | 1.3 ×10⁻⁶ cm/s | CCC[C@@H](CO)Nc1nc(N)nc(C)c1Cc1ccc(N2CCN(C)CC2=O)cc1OC [Example 4, (S)-1-(4-{[2-Amino-4-(1-hydroxypentan-2-ylamino)-6-methylpyrimidin-5-yl]methyl}-3-methoxyphenyl)-4-methylpiperazin-2-one] | > 10 µM |
| 6.31 µM | 23.7 ×10⁻⁶ cm/s | CCC[C@@H](CCO)Nc1nc(N)nc(C)c1Cc1ccc(N2CCN(C)CC2=O)cc1OC [Example 3, (S)-1-(4-{[2-Amino-4-(1-hydroxyhexan-3-ylamino)-6-methylpyrimidin-5-yl]methyl}-3-methoxyphenyl)-4-methylpiperazin-2-one] | > 10 µM |
